The record followed here is PubChem BioAssay AID1794819.

The assay has as its target Solute carrier family 15 member 2 (Homo sapiens) (UniProt Q16348). Put plainly: SLC15A2 dipeptide substrate-evoked depolarization, dose response, membrane potential dye, HEK-293 overexpressing cells, pH 6.8/7.4 (AID 1794819). The note with it: HEK-293 SLC15A2 OE, FLIPR membrane potential dye, as substrate.

Non-standard residues stand in square brackets, D forms with d. Residues, ends and D or L forms follow the SMILES beside them. Sar = CNCC(=O)O

Sequence of Solute carrier family 15 member 2 (Homo sapiens) (Q16348 whole entry, looked up): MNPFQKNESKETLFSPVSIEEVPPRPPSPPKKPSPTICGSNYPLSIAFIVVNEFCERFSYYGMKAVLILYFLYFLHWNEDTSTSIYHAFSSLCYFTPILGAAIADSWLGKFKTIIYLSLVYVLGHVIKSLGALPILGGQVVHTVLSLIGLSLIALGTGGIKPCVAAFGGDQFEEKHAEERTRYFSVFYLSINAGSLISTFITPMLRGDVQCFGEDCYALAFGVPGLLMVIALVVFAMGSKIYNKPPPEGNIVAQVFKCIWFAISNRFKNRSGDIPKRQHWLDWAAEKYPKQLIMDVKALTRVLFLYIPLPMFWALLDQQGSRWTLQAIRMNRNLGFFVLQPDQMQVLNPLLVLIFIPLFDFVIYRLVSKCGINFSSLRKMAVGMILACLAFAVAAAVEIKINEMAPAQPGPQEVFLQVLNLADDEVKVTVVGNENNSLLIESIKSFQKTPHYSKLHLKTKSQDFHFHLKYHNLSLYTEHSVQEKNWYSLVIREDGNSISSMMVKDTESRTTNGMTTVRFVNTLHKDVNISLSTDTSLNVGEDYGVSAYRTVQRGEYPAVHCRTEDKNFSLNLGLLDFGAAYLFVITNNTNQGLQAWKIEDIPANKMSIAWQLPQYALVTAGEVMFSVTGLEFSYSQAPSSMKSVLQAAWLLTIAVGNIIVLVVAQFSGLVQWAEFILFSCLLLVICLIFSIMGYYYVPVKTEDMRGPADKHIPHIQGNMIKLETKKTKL

Regarding `NCCC(=O)N[C@@H](Cc1cnc[nH]1)C(=O)O`, the EC50 (as a rule, the concentration needed to bring the measured effect to its halfway point) (pH 6.8) was 28 µM.
Take `CN(CC(=O)O)C(=O)CN` (H-Gly-[Sar]-OH): the EC50 was 39 µM (pH 6.8) and 123 µM (pH 7.4).
